This note sets out measurements from patent US20060281686A1, “Aza-peptides” (priority 2002, published 2006).

Data set [1] in a line: In vitro peptide stability in human plasma. It is filed as in vitro ADME. Particulars: after 24 h incubation at 37° C. in fresh human plasma; HPLC peak area vs sample incubated in PBS; read-out: % of intact peptide in human plasma. How it is done: (§1) Peptides were prepared as a 1 μg/μl solution in water. 20 μl of the peptide solution was diluted in 80 μl of fresh human plasma or 10% rat brain homogenate (prepared in PBS). The resulting solution was incubated at 37° C. for different times and the reaction was stopped by adding a complete cocktail of protease inhibitors. The bulk of plasma and brain proteins (but none of the peptide) were precipitated in cold methanol (mix/MeOH, 4/5, v/v) during one hour at −20° C. The precipitated proteins were pelleted by centrifugation (10000 g, 10 min, 4° C.). The supernatant, containing the peptide, was concentrated 5 times under vacuum and separated by reverse-phase HPLC. The area of the peak corresponding to the intact peptide was measured and compared with an equivalent sample incubated in PBS. The results are listed in Table 1 as percentage of intact peptide after 24 h incubation at 37° C. in human plasma and in rat brain homogenate. The values compare favourably with those obtained for the reference compound of Example 8.

Data set [2] is described as follows: In vitro peptide stability in rat brain homogenate. It is filed as in vitro ADME. Particulars: after 24 h incubation at 37° C. in 10% rat brain homogenate; HPLC peak area vs sample incubated in PBS; read-out: % of intact peptide in rat brain homogenate. How it is done: as §1

*1 amine or outer side, *2 acyl side, *3 side chain or, on linkers, in order; H or OH if unused. Where a SMILES comes first, the peptide text is derived from it. [ ]: non-standard residue; d: D form. azaPhe = O=C(N(Cc1ccccc1)N[*:1])[*:2]; azaPro = O=C(N1CCCN1[*:1])[*:2]

Take `CC(=O)N[C@@H](CC(C)C)C(=O)N1CCCN1C(=O)N[C@@H](Cc1ccccc1)C(=O)N[C@@H](Cc1ccccc1)C(=O)N[C@@H](CC(=O)O)C(N)=O` [Example 6, Ac-L-P^a-F-F-D-NH2] (Ac-L[azaPro]FFD-NH2): the remaining at 24 h, 0.2 μg/μl in data set [1] came to 93%; in data set [2], 80%.

Consider `CC(=O)N[C@@H](CC(C)C)C(=O)N1CCC[C@H]1C(=O)NN(Cc1ccccc1)C(=O)N[C@@H](Cc1ccccc1)C(=O)N[C@@H](CC(=O)O)C(N)=O` [Example 5, Ac-L-P-F^a-F-D-NH2] (Ac-LP[azaPhe]FD-NH2), for which the results for the remaining at 24 h, 0.2 μg/μl in data set [1] and in data set [2] were 93% and 71%, respectively.

“Ac-LPFFD-NH2 [Example 8, reference compound]”: the remaining at 24 h, 0.2 μg/μl is 74% in data set [1] and 2% in data set [2].
